Results as given in US20070129385A1, “Amorphous valganciclovir hydrochloride” (priority 2003, published 2007).
Where a name gives a salt, the structure may show the parent alone.

Experiments:
[1] = storage stability of the solid amorphous form; format: physicochemical
From the text: Solid amorphous valganciclovir hydrochloride is provided herein. The amorphous valganciclovir hydrochloride can be produced with no detectable crystalline valganchloride hydrochloride present, based on XRD investigations having a limit of detection of 0.5%.
The mixture of amorphous valganciclovir hydrochloride containing some crystalline form is then substantially converted to an amorphous form by dissolving it in water (optionally containing an organic solvent) followed by spray-drying of the solution as described earlier. Crystalline formation at this stage can be inhibited by storage under nitrogen in the strict absence of atmosphere or other water. The amorphous material has been found stable for up to at least 3 months with proper storage.

human cytomegalovirus = settings: in vitro and in vivo; cited from earlier work
[2] = administered orally; cited from earlier work

| time for which the material was found stable ([1]; proper storage (under nitrogen, absence of water)) | SMILES | stability on storage ([1]; stored under controlled humidity conditions) | stability profile compared with the crystalline form ([1]; versus existing crystalline form) | replication of human cytomegalovirus (human cytomegalovirus) | rate of absorption [2] |
| --- | --- | --- | --- | --- | --- |
| at least 3 months | CC(C)[C@@H](N)C(=O)OCC(CO)OCn1cnc2c(O)nc(N)nc21 (stereo partly drawn) [Amorphous valganciclovir hydrochloride, L-valinate ester of 2-(2-amino-1,6-dihydro-6-oxo-purin-9-yl)-methoxy-3-hydroxy-1-propanyl hydrochloride salt] | stable when stored under controlled humidity conditions | superior stability profile to the existing crystalline form |  |  |
|  | Nc1nc(O)c2ncn(COC(CO)CO)c2n1 [Ganciclovir] |  |  | inhibits replication of human cytomegalovirus in vitro and in vivo | very low rate of absorption |
